SMILES strings stand for the structures.

For orientation: melting point means the temperature, or range, at which the solid turns liquid. `Cc1ccc(S(=O)(=O)c2ccc(CBr)cc2)cc1` had a melting point of 137 to 139 °C. Next, `CC(=O)Oc1ccc(C(=O)O)cc1OC(C)=O`: 159 to 161 °C.

`Cc1ccc(C(=O)O)cc1S(=O)(=O)N1CCOCC1`: the melting point is 176 to 178 °C. Next, `NC(=O)c1ccccc1Oc1cccc(N)c1`: 129 to 131 °C; `NCC(O)c1ccc(Cl)cc1` (stereo not given): 97 to 99 °C. `Cc1cc2c[nH]nc2c(C(=O)O)c1N` registered a melting point of 174 to 176 °C. In the case of `CN1C(=O)CNc2ccccc21`, the melting point fell in the range of 88 to 90 °C. As to `CC(NC(=O)CCl)c1ccc(F)cc1` (stereo not given), the melting point lay within 71 to 73 °C. Take `Cc1cn2c(=O)c(C(=O)O)cnc2s1`: the melting point is 239 to 241 °C. Take `O=C(O)C1CCCN1C(=O)c1ccccc1OC(F)F` (stereo not given): the melting point is 124 to 126 °C.

On to `O=c1[nH]c(-c2ccccn2)nc2c1CCC2`, for which the melting point fell in the range of 178 to 180 °C.

Compound `O=C1CC(c2ccccc2)C(=O)N1` (stereo not given) registered a melting point of 72 to 74 °C.

`Clc1ccc(-c2ccccc2)nn1` had a melting point of 157 to 159 °C. In turn, `Cc1csc(Nc2ccccc2)n1` showed a melting point of 74 to 76 °C. Next, `O=C(O)CCCCCNC1=NS(=O)(=O)c2ccccc21`: 189 to 191 °C; `COc1ccc(C2(C(=O)O)CCCCC2)cc1OC`: 124 to 126 °C. With `CN(c1ccc(F)cc1)S(=O)(=O)c1ccc(Cl)c(C(=O)O)c1`, the melting point was 174 to 176 °C. Consider `CN(CCCC(=O)O)S(=O)(=O)c1ccc(F)cc1`, for which the melting point lay within 74 to 76 °C. Compound `N#CCn1cc(Br)cn1` returned a melting point of 60 to 62 °C. As to `CN(CC(=O)O)c1nc2ccccc2s1`, the melting point was 165 to 167 °C. The figure for `Cn1c(=O)c2cc(S(=O)(=O)Cl)cnc2n(C)c1=O` is 171 to 173 °C; for `CC(C)CC(N)c1nnn[nH]1` (stereo not given) it is 272 to 274 °C; for `CNC(=O)c1ccn(-c2ccc(N)cc2)n1` it is 152 to 154 °C. Consider `Cc1oc2[nH]c(=O)n(-c3ccccc3)c(=O)c2c1C(=O)O`, for which the melting point was 289 to 291 °C. `Nc1nn2cc(-c3ccccc3)nc2c2ccccc12`: the melting point is 215 to 217 °C.

Turning to `O=C(O)c1cc(I)c(F)cc1F`, the melting point lay within 163 to 165 °C. Consider `Cc1occc1-c1nnc(S)n1N`, for which the melting point fell in the range of 159 to 161 °C.

On to `Cc1ccsc1-c1nnc(N)o1`, for which the melting point fell in the range of 147 to 149 °C.

The compound `CCS(=O)(=O)N1CCC(C(=O)O)CC1` returned a melting point of 143 to 145 °C.

In the case of `O=C(O)CCNS(=O)(=O)c1ccccc1`, the melting point fell in the range of 110 to 114 °C. In turn, `O=C(NCCO)c1cccc(S(=O)(=O)N2CCCCC2)c1` returned a melting point of 65 to 68 °C. `Cc1cc(NC(=O)C2CCCC2)sc1C(=O)O` yielded a melting point of 174 to 176 °C. The compound `ClCc1cccc(Cl)n1` gave a melting point of 42 to 44 °C.

Turning to `O=C(CCl)Nc1ccc(-c2ccccc2)cc1`, the melting point was 121 to 123 °C. Consider `O=C(O)C1CCCCC1C(=O)NC1CCS(=O)(=O)C1` (stereo not given), for which the melting point is 137 to 139 °C. The compound `O=C(O)CCc1nc(-c2ccc(F)cc2)no1` returned a melting point of 150 to 152 °C. `CC(CC(=O)O)NC1=NS(=O)(=O)c2ccccc21` (stereo not given): the melting point was in the range of 245 to 247 °C.

On to `COc1ccc(-c2noc(CCl)n2)c(OC)c1`, for which the melting point was in the range of 76 to 80 °C.

For `CCCC(C)NC(=O)C(C)Cl` (stereo not given), the melting point fell in the range of 51 to 53 °C.

Consider `Nc1ncccc1OCC1CCCCC1`, for which the melting point lay within 117 to 119 °C. `Nc1ncnc2c1ncn2CCCCl` had a melting point of 339 to 341 °C. `CCOc1cc(C=CC#N)ccc1OC` yielded a melting point of 57 to 59 °C.

In turn, `CS(=O)Cc1cc(N)ccc1Cl` (stereo not given) returned a melting point of 200 to 202 °C. `Nc1cccc(C(=O)NCC(F)(F)F)c1` yielded a melting point of 118 to 120 °C. Next, `Cc1ccc(C(C)C)c(OCC(=O)O)c1`: 126 to 128 °C; `O=C(O)c1c(C(F)(F)F)noc1C(F)(F)F`: 169 to 171 °C; `COc1ccc(NS(=O)(=O)c2ccc(N3CCCC3)c(N)c2)cc1`: 40 to 42 °C. The compound `O=C(O)c1cccc(N2C(=O)CCC2=O)c1` yielded a melting point of 237 to 239 °C. `Cc1ccc(C(=O)NC(CC(=O)O)c2ccccc2)cc1` (stereo not given) registered a melting point of 190 to 192 °C.

In the case of `CC(=O)c1ccc(N)cc1C`, the melting point was 83 to 85 °C. Next, `COc1ccc(C(=O)O)cc1S(=O)(=O)Cc1cc(C)no1`: 217 to 219 °C; `Cc1ccc(S(=O)(=O)NC2CCCCC2)cc1C(=O)O`: 217 to 219 °C; `C/C=C/c1cc(C(=O)O)cc(OC)c1OC`: 142 to 144 °C. The figure for `CC1CCC(NC(=O)OC(C)(C)C)(C(=O)O)CC1` (stereo not given) is 151 to 153 °C; for `O=CN1CCN(S(=O)(=O)Cl)CC1` it is 103 to 105 °C; for `COc1ccc(Cl)cc1C1(CN)CCOCC1` it is 100 to 102 °C. Next, `COc1ccc(CNC(=O)CCl)cc1C(=O)O`: 133 to 135 °C; `CCC1CCc2[nH]c(=O)sc2C1` (stereo not given): 144 to 146 °C.

On to `CCNC(=O)c1cc(Cl)ccn1`, for which the melting point lay within 60 to 62 °C.

Compound `O=S(=O)(Cl)c1cn2c(n1)CCCC2` showed a melting point of 74 to 76 °C.

As to `CCNS(=O)(=O)c1cccc(C(=O)O)c1`, the melting point lay in the range of 199 to 201 °C. `O=C(O)c1ccc(Cl)c(S(=O)(=O)Nc2ccccc2Cl)c1`: the melting point was 213 to 215 °C.

`O=C(Nc1nncs1)c1ccc(O)cc1`: the melting point was 303 to 305 °C.

The compound `COC(=O)c1ccc(C=CC(=O)O)cc1` gave a melting point of 236 to 238 °C. Take `CC(C(=O)O)c1ccc2c(c1)OCCO2` (stereo not given): the melting point fell in the range of 77 to 79 °C. Next, `NC(=O)c1ccccc1N1CCC(N)C1` (stereo not given): 138 to 140 °C. Compound `Cc1nnc(S)n1C` registered a melting point of 112 to 115 °C.

Compound `Cn1c(S)nnc1-c1ccco1` returned a melting point of 179 to 181 °C. The figure for `CC(=CC(=O)O)c1ccccc1` is 93 to 95 °C. With `O=Cc1ccc(OCC(=O)Nc2ccccc2)cc1`, the melting point fell in the range of 125 to 127 °C. The figure for `COc1ccc(C2CNC(=O)C2)cc1` (stereo not given) is 126 to 128 °C; for `COC(=O)Cc1nnc(N)[nH]1` it is 159 to 161 °C; for `COc1ccc(C2C(C(=O)O)CC(=O)N2C2CC2)cc1` (stereo not given) it is 187 to 189 °C. Consider `CC(C)(C)OC(=O)N1CC2CCC(O)C2C1` (stereo not given), for which the melting point lay in the range of 61 to 63 °C.

Regarding `Cc1nn(Cc2c(Cl)cccc2Cl)c2sc(C(=O)O)cc12`, the melting point is 282 to 284 °C.

For `CC(N)(CO)C1CCCCC1` (stereo not given), the melting point is 80 to 82 °C. On to `COc1ccc(C=O)cc1SC`, for which the melting point lay within 44 to 46 °C. As for `O=S(=O)(c1ccc2c(c1)CCN2)N1CCOCC1`, the melting point lay in the range of 173 to 177 °C. The compound `O=S(=O)(c1ccc(O)cc1)N1CCCCC1` displayed a melting point of 130 to 132 °C.

`Cc1cc(C(=O)CCl)c(C)n1-c1ccc(C(F)(F)F)cc1` had a melting point of 115 to 117 °C. On to `Cc1cccn2cc(-c3ccc(N)cc3)nc12`, for which the melting point lay within 161 to 163 °C. Regarding `Cc1cc(C)c2c(Cl)c(C(=O)O)sc2c1`, the melting point was in the range of 286 to 288 °C. The figure for `CCC(=O)c1ccc(OC(F)F)cc1` is 39 to 43 °C; for `Cc1ccccc1-n1c(C)cc(C(=O)O)c1C` it is 127 to 129 °C; for `OC1CC(c2ccccc2F)C1` (stereo not given) it is 46 to 48 °C.

Values taken from a melting point compilation (Tetko et al.).
